Each structure is given as a SMILES string. Values after ≈ are worked out from the molar mass of the structure shown. Numbered stars: 1 amine (or outer) side, 2 acyl side, 3 side chain; on linkers, the order of the positions; unused ones are H or OH. Bridge positions count the residues as written; N and C are the ends. Square brackets hold non-standard residues; d marks the D form. Peptide text beside a SMILES is read from it. ξ: configuration not given here. X1 = CCCCCCCCCCCC(O[C@H]1OC[C@H](O)[C@@H](O)[C@@H]1O)C(O)C(O)CC(CC(=O)[*:1])N[*:2]; X2 = CCCCCCCCCCCC(O)C(O)C(O)CC(CC(=O)[*:2])N[*:1]; Asn(3S-OH) = NC(=O)[C@@H](O)[C@H](N)C(=O)O; ξTyr(βOH) = NC(C(=O)O)C(O)c1ccc(O)cc1

What all share (experiment): Microtitre 2-fold serial dilution MIC assay
Common to all, as to format: cell-based

Assay [1] concerns Saccharomyces cerevisiae. The note with it: S. cerevisiae; 30° C., 4 days, turbidity. As to the method: Anti-fungal activity for the present compounds was determined using microtitre format. Microtitre plates (96 wells: rows A-H, columns 1-12) were filled by the following protocol to give 2-fold serial dilutions of each of Bk-1229 and Bk-1097. Samples of Bk-1229 and Bk-1097 were dissolved in 1/10-strength BHIB containing 0.1% (w/v) dimethylsulfoxide (DMSO). Aliquots (50 μL) of 1/10-strength BHIB containing 0.1 (w/v) % DMSO (pH 7.4) were added to all wells except those in column 1. The wells in column 1 received 100 μL of the solutions of Bk-1229 or Bk-1097 and 50 μL was removed and mixed with the medium in the second well. This process was repeated through well 11, at which point an aliquot (50 μL) was removed and discarded. Well 12 was the blank (positive growth) control, BHIB+DMSO only. The test microorganisms employed in this example were Saccharomyces cerevisiae, Candida albicans, and Aspergillus niger, which were obtained from the Virginia Tech Microbiology Culture Collection. Cells of S. cerevisiae and C. albicans were grown in sterile 1/10-strength Brain Heart Infusion Broth (BHIB) and incubated at 30° C. for 18 h. Cells were counted as colony forming units on 1/10-strength BHIB agar. Spore suspensions of A. niger were prepared from lawns of sporulating colonies on 1/10-strength BHIB agar. The number of spores was determined by counting spores microscopically in a Petroff-Hauser counting chamber. The resulting culture or spore suspensions were diluted to 10^5 cells or spores/mL. Following the preparation of the dilution series, 50 μL of microbial inocula (10^5/mL) were added to each well in a row. The concentration of Bk-1229 and Bk-1097 ranged from 50 to 0.05 μg/mL. After the plates were incubated at 30° C. for 4 days, measurement of minimal inhibitory concentration (MIC) results were read by comparing the turbidity (due to microbial growth) of each test well to the positive control wells. The measured MICs for each of burkholdines are summarized as follow: […]

In assay [2] the test system is Candida albicans. The following applies: C. albicans; 30° C., 4 days, turbidity.
The subject of assay [3] is Aspergillus niger. The following applies: A. niger; 30° C., 4 days, turbidity.

On to `CCCCCCCCCCCC(O[C@H]1OC[C@H](O)[C@@H](O)[C@@H]1O)C(O)C(O)CC1CC(=O)N[C@H](CO)C(=O)NC(C(O)c2ccc(O)cc2)C(=O)N[C@H](CC(N)=O)C(=O)NCC(=O)N[C@@H](CC(N)=O)C(=O)N[C@@H](CO)C(=O)N[C@@H]([C@H](O)C(N)=O)C(=O)N1` (stereo partly drawn) [Bk-1229 (1), burkholdine 1229] ([dS][ξTyr(βOH)][dN]GNS[Asn(3S-OH)]; linker N-C via X1), for which the minimal inhibitory concentration (MIC) (as a rule, the smallest concentration in the dilution series that meets the test's criterion for growth inhibition) in assay [1] stood at 0.4 µg/mL (≈ 0.325 µM); in assay [2], 12.5 µg/mL (≈ 10.2 µM); in assay [3], 12.5 µg/mL (≈ 10.2 µM).

As to `CCCCCCCCCCCC(O)C(O)C(O)CC1CC(=O)N[C@H](CO)C(=O)NC(C(O)c2ccc(O)cc2)C(=O)N[C@H](CC(N)=O)C(=O)NCC(=O)N[C@@H](CC(N)=O)C(=O)N[C@@H](CO)C(=O)N[C@@H]([C@H](O)C(N)=O)C(=O)N1` (stereo partly drawn) [Bk-1097 (2), burkholdine 1097] (cyclo(GNS[Asn(3S-OH)][X2][dS][ξTyr(βOH)][dN])), the MIC was 1.6 µg/mL (≈ 1.46 µM) in assay [1], 12.5 µg/mL (≈ 11.4 µM) in assay [2] and 1.6 µg/mL (≈ 1.46 µM) in assay [3].

On to `C[C@@H]1[C@H](O)[C@@H](C)/C=C/C=C/C=C/C=C/C=C/C=C/C=C/[C@H](O[C@@H]2O[C@H](C)[C@@H](O)[C@H](N)[C@@H]2O)C[C@@H]2O[C@](O)(C[C@@H](O)C[C@@H](O)[C@H](O)CC[C@@H](O)C[C@@H](O)CC(=O)O[C@H]1C)C[C@H](O)[C@H]2C(=O)O` [Amphetericin B, reference compound], for which the minimal inhibitory concentration (MIC) in assay [1], in assay [2] and in assay [3] was 25 µg/mL (≈ 27.1 µM) each time.

The values above are taken from patent publication US9139616B2, “Isolation, identification, and uses of antifungal compounds” (priority 2010, dated 2015).
